Experimental data published in patent US10898486B2, “Crystal form of orexin receptor antagonist compound, and preparation method and application thereof” (Shanghai Haiyan Pharmaceutical Technology Co., Ltd., priority 2015, dated 2021).
Converted amounts (≈) assume the structure as drawn. One block for each compound: values may come before it.

Assays:
[1] = Solubility of crystal form II in different aqueous media (37° C., 24 hours, HPLC); type: physicochemical; settings: for Appearance: 10 mg in 1 mL
[2] = Solubility of crystal form I in different solvents (visual, room temperature); type: physicochemical
Protocol: Solubility Study of crystal form I of compound 5-3:1-1.5 mg of crystal form I of compound 5-3 was added to a flask at room temperature, a single organic solvent or a mixed solvent was added in small quantities and many times until the visual solution was clear or no solid particles were present, determined the solubility of crystal form I in different solvents, the results were shown in Table 2.

[3] = molecular target: T1, hOX1R (Homo sapiens, UniProt O43613); assay: In vitro test of OX1R: calcium signal change in HEK293-OX1 cells detected with FLIPR; type: cell-based
T1 construct: expressed in transfected cells
T1 sequence (O43613 1-425): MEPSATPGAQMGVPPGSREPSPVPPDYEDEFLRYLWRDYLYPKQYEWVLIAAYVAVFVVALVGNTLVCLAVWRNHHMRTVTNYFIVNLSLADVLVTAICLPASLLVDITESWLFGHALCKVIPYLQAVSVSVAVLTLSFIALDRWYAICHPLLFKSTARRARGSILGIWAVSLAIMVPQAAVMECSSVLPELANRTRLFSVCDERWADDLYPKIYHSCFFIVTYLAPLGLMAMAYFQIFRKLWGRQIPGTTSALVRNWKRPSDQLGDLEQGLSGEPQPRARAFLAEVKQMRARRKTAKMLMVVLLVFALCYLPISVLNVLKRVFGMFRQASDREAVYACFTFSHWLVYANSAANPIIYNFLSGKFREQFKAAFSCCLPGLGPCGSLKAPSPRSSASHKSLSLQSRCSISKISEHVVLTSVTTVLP

[4] = molecular target: T2, hOX2R (Homo sapiens, UniProt O43614); assay: In vitro test of OX2R: calcium signal change in HEK293-OX2 cells detected with FLIPR; type: cell-based
T2 construct: expressed in transfected cells
T2 sequence (O43614 1-444): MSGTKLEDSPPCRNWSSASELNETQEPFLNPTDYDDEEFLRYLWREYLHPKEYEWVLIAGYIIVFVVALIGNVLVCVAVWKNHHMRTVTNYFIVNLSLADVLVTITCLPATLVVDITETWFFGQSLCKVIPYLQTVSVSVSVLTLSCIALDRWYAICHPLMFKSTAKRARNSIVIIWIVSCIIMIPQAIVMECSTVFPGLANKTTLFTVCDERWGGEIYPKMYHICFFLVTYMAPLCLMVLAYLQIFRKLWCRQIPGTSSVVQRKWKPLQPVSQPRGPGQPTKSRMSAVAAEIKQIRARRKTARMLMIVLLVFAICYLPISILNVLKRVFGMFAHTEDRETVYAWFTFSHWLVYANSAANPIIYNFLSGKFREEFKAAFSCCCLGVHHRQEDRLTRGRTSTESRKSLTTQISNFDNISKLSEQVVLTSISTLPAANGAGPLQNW

[5] = Simulated fasting intestinal fluid
[6] = Simulated postprandial intestinal fluid

- Crystal form of residual solid ([1]; 0.1N HCl): crystal form II
- Final pH ([1]; 0.1N HCl): 0.80
- Solubility (descriptive) ([1]; 0.1N HCl): Slightly soluble
- Appearance ([1]; 0.1N HCl): turbid
- Crystal form of residual solid ([1]; Simulate gastric fluid): crystal form II
- Final pH ([1]; Simulate gastric fluid): 1.88
- Solubility (descriptive) ([1]; Simulate gastric fluid): Slightly soluble
- Appearance ([1]; Simulate gastric fluid): turbid
- Crystal form of residual solid [1, 5]: crystal form II
- Final pH [1, 5]: 6.65
- Solubility (descriptive) [1, 5]: Slightly soluble
- Appearance [1, 5]: turbid
- Crystal form of residual solid [1, 6]: crystal form II
- Final pH [1, 6]: 5.04
- Solubility (descriptive) [1, 6]: Slightly soluble
- Appearance [1, 6]: turbid
- solubility at 24 h ([1]; pH 0.8, simulated gastric fluid, thermodynamic from solid, 0.1N HCl): 0.42 mg/mL (≈ 0.971 mM)
- solubility at 24 h ([1]; pH 1.88, simulated gastric fluid, thermodynamic from solid, Simulate gastric fluid): 0.27 mg/mL (≈ 0.624 mM)
- solubility at 24 h ([1]; pH 5.04, fessif, thermodynamic from solid, Simulated postprandial intestinal fluid): 0.29 mg/mL (≈ 0.671 mM)
- solubility at 24 h ([1]; pH 6.65, fassif, thermodynamic from solid, Simulated fasting intestinal fluid): 0.18 mg/mL (≈ 0.416 mM)
- solubility at 24 h ([1]; pH 7.95, thermodynamic from solid, water): 0.14 mg/mL (≈ 0.324 mM)
- Crystal form of residual solid ([1]; water): crystal form II
- Final pH ([1]; water): 7.95
- Solubility (descriptive) ([1]; water): Slightly soluble
- Appearance ([1]; water): turbid
Structure (SMILES): Cc1ccc(-c2ncccn2)c(C(=O)N2C3CCC2[C@@H](COc2ccc(F)cn2)CC3)c1 (stereo partly drawn) [crystal form II]

- solubility ([2]; organic solvent or mixture, thermodynamic from solid, 1,4-dioxane): > 57 mg/mL
- solubility ([2]; organic solvent or mixture, thermodynamic from solid, ACN): 20 to 50 mg/mL (≈ 46.2 to 116 mM)
- solubility ([2]; organic solvent or mixture, thermodynamic from solid, Acetone): > 52 mg/mL
- solubility ([2]; organic solvent or mixture, thermodynamic from solid, EtOAc): 19 to 48 mg/mL (≈ 43.9 to 111 mM)
- solubility ([2]; organic solvent or mixture, thermodynamic from solid, EtOH): 22 to 55 mg/mL (≈ 50.9 to 127 mM)
- solubility ([2]; organic solvent or mixture, thermodynamic from solid, IPA): 10 to 20 mg/mL (≈ 23.1 to 46.2 mM)
- solubility ([2]; organic solvent or mixture, thermodynamic from solid, MEK): > 54 mg/mL
- solubility ([2]; organic solvent or mixture, thermodynamic from solid, MIBK): 24 to 60 mg/mL (≈ 55.5 to 139 mM)
- solubility ([2]; organic solvent or mixture, thermodynamic from solid, MTBE): < 1 mg/mL
- solubility ([2]; organic solvent or mixture, thermodynamic from solid, MeOH): > 53 mg/mL
- solubility ([2]; organic solvent or mixture, thermodynamic from solid, MeOH—H2O (3:1)): 18 to 46 mg/mL (≈ 41.6 to 106 mM)
- solubility ([2]; organic solvent or mixture, thermodynamic from solid, THF): > 53 mg/mL
- solubility ([2]; organic solvent or mixture, thermodynamic from solid, Toluene): > 54 mg/mL
- solubility ([2]; organic solvent or mixture, thermodynamic from solid, n-butanol): 22 to 55 mg/mL (≈ 50.9 to 127 mM)
- solubility ([2]; thermodynamic from solid, water): < 1 mg/mL
Structure (SMILES): Cc1ccc(-c2ncccn2)c(C(=O)N2C3CCC2[C@@H](COc2ccc(F)cn2)CC3)c1 (stereo partly drawn) [crystal form I]

- IC50 [3]: < 0.05 µM
- IC50 [4]: < 0.05 µM
Structure (SMILES): Cc1ccc(-c2ncccn2)c(C(=O)N2C3CCC2[C@@H](COc2ccc(F)cn2)CC3)c1 (stereo partly drawn) [Compound 5-3]
